Assay results from ChEMBL document CHEMBL3734721 (J Med Chem, 2015).

Legend:
[1] = target: T1, Muscarinic acetylcholine receptor M1 (Homo sapiens, UniProt P11229); test: Agonist activity at human wild-type M1 receptor expressed in CHO-K1 cells assessed as calcium level by FDSS assay; type: functional, cell-based
T1 sequence (P11229 whole entry): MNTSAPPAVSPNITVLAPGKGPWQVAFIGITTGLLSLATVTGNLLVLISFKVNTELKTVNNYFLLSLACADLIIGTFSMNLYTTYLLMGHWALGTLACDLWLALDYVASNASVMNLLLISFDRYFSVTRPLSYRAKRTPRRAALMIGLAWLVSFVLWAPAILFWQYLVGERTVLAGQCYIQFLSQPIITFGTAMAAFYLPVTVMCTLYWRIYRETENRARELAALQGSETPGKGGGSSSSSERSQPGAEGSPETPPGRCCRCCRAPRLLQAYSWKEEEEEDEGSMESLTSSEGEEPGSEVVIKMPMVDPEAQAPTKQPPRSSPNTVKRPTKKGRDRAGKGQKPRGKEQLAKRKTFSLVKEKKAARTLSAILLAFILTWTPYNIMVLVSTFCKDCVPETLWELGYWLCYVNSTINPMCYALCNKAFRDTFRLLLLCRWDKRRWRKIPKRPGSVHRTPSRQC

[2] = target: T2, Alpha-2A adrenergic receptor (Homo sapiens, UniProt P08913); test: Agonist activity at human wild-type alpha 2A receptor expressed in CHO-K1 cells assessed as cAMP level by HTRF assay; type: functional, cell-based
T2 sequence (P08913 whole entry): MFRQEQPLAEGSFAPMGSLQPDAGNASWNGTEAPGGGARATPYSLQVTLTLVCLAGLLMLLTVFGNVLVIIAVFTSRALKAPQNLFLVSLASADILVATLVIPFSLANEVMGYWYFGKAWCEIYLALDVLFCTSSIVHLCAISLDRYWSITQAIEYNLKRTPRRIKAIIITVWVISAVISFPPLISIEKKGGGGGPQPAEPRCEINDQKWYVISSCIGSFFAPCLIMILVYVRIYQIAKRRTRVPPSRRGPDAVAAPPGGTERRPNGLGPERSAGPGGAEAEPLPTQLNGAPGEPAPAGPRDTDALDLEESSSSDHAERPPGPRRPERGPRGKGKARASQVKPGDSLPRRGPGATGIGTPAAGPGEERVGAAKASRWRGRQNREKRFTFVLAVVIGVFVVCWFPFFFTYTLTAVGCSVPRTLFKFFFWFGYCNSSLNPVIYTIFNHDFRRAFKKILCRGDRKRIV

Endothelin-1 receptor = target: T3, Endothelin-1 receptor (Homo sapiens, UniProt P25101); test: Antagonist activity at human wild-type ETA receptor expressed in CHO-K1 cells assessed as endothelin-1-induced calcium by HTRF assay; type: functional, cell-based
T3 sequence (P25101 whole entry): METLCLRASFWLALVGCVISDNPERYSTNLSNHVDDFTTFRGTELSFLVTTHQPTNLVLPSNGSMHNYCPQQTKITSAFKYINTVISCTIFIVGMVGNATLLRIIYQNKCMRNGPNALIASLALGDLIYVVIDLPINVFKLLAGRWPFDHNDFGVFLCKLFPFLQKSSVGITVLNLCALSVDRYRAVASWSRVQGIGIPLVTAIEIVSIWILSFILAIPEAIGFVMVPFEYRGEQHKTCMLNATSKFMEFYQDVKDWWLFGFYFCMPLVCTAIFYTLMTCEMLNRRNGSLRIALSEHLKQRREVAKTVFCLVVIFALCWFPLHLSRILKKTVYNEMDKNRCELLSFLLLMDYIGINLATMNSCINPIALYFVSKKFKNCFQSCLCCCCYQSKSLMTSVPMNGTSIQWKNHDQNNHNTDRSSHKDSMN

Vasopressin V1a receptor = Vasopressin V1a receptor (Homo sapiens, UniProt P37288); test: Antagonist activity at human wild-type AVPR1A receptor expressed in CHO-K1 cells assessed as vassopressin-induced calcium by FDSS assay; type: functional, cell-based
[3] = Chemical stability of compound in DMSO assessed as compound remaining at 10 mg/ml after 2 days at room temperature; type: physicochemical; conditions: read-out: Stability
[4] = Chemical stability of compound in 0.1N HCL assessed as compound remaining at 10 mg/ml after 1 day; type: physicochemical; conditions: read-out: Stability
[5] = Intrinsic clearance in human liver microsomes at 1 uM by HPLC/MS/MS analysis; type: ADME; conditions: read-out: CLH
[6] = target: 5-hydroxytryptamine receptor 7 (Homo sapiens, UniProt P34969); test: Agonist activity at human wild-type 5-HT7 receptor expressed in HEK cells assessed as cAMP by HTRF assay; type: functional, cell-based, HEK293
[7] = Chemical stability of compound in buffer at pH 7.4 assessed as compound remaining at 10 mg/ml after 2 days; type: physicochemical; conditions: read-out: Stability
[8] = target: T4, Alpha-1A adrenergic receptor (Homo sapiens, UniProt P35348); test: Antagonist activity at human wild-type alpha 1A receptor expressed in CHO cells assessed as EP-induced calcium by HTRF assay; type: functional, cell-based
T4 sequence (P35348 whole entry): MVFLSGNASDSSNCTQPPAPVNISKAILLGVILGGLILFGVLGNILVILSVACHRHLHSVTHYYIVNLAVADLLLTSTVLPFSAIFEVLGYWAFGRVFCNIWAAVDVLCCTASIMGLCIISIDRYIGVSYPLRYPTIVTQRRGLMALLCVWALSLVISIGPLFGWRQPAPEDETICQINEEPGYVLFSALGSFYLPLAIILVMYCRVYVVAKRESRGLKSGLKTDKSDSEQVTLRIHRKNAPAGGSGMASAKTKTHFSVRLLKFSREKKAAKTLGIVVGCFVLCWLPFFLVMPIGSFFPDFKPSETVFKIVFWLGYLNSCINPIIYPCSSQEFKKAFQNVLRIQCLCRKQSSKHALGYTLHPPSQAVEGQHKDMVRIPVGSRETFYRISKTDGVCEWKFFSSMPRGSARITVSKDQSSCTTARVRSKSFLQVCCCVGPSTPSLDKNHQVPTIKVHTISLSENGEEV

[9] = target: T5, 5-hydroxytryptamine receptor 2C (Homo sapiens, UniProt P28335); test: Agonist activity at human 5-HT2C receptor expressed in CHO-K1 cells assessed as calcium level by FDSS assay; type: functional, cell-based
T5 sequence (P28335 whole entry): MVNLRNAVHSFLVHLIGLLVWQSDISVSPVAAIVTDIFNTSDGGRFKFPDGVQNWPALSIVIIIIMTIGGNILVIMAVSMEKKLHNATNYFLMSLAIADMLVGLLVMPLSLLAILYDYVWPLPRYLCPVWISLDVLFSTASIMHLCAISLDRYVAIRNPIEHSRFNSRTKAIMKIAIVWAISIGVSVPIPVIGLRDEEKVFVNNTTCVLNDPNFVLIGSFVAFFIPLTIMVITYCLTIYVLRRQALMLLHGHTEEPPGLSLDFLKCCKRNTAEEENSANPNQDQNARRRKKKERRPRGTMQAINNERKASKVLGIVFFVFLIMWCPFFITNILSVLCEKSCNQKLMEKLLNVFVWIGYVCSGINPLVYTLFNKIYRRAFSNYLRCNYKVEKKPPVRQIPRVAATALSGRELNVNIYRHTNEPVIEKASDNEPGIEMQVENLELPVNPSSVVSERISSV

D(2) dopamine receptor = D(2) dopamine receptor (Homo sapiens, UniProt P14416); test: Agonist activity at human wild-type D2 receptor expressed in CHO-K1 cells assessed as cAMP level by HTRF assay; type: functional, cell-based
Chain of D(2) dopamine receptor (P14416 whole entry): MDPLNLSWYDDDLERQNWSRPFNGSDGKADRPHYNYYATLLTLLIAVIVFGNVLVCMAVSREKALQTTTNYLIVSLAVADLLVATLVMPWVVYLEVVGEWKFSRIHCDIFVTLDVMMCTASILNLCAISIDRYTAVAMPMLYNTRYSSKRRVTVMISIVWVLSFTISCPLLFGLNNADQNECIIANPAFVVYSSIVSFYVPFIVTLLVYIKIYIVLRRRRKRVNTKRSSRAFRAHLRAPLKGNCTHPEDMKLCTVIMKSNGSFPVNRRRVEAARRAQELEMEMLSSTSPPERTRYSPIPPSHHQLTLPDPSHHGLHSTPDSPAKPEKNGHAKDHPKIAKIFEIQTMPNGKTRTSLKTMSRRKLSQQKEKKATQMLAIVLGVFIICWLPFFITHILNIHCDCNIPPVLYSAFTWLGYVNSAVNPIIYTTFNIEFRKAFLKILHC

Chain of 5-hydroxytryptamine receptor 7 (P34969 whole entry): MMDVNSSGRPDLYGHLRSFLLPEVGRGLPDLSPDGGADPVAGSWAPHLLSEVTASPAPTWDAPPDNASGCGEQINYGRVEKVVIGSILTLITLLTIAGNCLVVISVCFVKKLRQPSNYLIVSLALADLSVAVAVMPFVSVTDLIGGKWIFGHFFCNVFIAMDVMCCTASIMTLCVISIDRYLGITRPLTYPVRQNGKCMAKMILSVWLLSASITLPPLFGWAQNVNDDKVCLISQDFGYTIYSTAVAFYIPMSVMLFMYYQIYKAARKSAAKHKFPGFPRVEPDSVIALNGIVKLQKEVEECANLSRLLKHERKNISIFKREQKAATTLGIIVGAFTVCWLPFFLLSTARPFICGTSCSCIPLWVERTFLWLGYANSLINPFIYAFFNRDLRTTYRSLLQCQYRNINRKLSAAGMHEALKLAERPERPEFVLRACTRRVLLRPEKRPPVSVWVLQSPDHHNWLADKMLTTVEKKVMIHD
Chain of Vasopressin V1a receptor (P37288 whole entry): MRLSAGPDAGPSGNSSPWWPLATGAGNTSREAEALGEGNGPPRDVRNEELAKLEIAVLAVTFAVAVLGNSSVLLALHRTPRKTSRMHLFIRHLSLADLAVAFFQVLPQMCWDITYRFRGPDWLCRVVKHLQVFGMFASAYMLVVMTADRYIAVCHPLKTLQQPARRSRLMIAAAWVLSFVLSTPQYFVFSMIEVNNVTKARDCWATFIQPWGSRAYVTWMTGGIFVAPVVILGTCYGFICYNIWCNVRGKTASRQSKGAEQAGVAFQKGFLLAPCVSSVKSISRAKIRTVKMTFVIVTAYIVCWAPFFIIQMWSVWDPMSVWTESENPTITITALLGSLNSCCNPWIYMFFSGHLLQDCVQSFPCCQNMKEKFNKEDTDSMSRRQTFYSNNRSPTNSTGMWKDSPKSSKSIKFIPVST

| EC50 [1] [µM] | EC50 [2] [µM] | IC50 (Endothelin-1 receptor) [µM] | IC50 (Vasopressin V1a receptor) [µM] | remaining at 48 h, 10 mg/ml [3] [%] | remaining at 24 h, 10 mg/ml [4] [%] | microsomal CLint at 1 µM [5] [µL/min/mg] | EC50 [6] [µM] | remaining at 48 h, 10 mg/ml [7] [%] | IC50 [8] [µM] | EC50 [9] [µM] | EC50 (D(2) dopamine receptor) [µM] | SMILES |
| --- | --- | --- | --- | --- | --- | --- | --- | --- | --- | --- | --- | --- |
| > 5.01 | > 5.01 | > 5.01 | > 5.01 | 96 | 0 | 8.7 | > 5.01 | 91 | > 5.01 | > 5.01 | > 5.01 | CB1C=Cc2cccc(OCC(O)CNC(C)C)c2N1 (centres undefined) |
| > 5.01 | > 5.01 | > 5.01 | > 5.01 | 96 | 0 | 11 | > 5.01 | 96 | > 5.01 | > 5.01 | > 5.01 | CB1C=Cc2c(cccc2OCC(O)CN(C)C)N1 (centres undefined) |
